Measurements published in US10149476B2, “Pesticidal plant extract containing loline derivatives” (GRASSLANZ TECHNOLOGY LTD, priority 2007, dated 2018).
Values joined by “and” are separate entries in the source; they are usually repeats but may differ in a detail not shown here. Identical values can stand only once.

Legend:
[1] = Uptake of pyrrolizidine alkaloids into endophyte free Ryegrass plants after watering composition onto roots; assay type: in vivo; conditions: leaf sub-sample after 21 days; for Pyrrolizidine Alkaloid Content, Average: average of 5 endophyte free Ryegrass plants, Grinding Number 1 composition watered on roots; for Pyrrolizidine Alkaloid Content: individual endophyte free Ryegrass plants 1-5, 100 ml Grinding Number 1 composition watered on roots every second day
Experimental: (§1) Pesticidal composition from Grinding Number 1 of Example 1 was watered onto the roots of endophyte free Fescue and Ryegrass plants grown in a glasshouse under controlled conditions into silica sand filled pots. Control plants were included in the plant samples and were watered with nil endophyte ground extract containing no pesticidal composition. Trial plants were each watered with 100 ml of each composition every second day with nutrient watered on alternate days. After 21 days, a sub-sample of leaf material was analysed to determine the uptake of pesticidal composition into the plants tested.
(§2) The results shown below in Table 2 for endophyte free Fescue plants and Table 3 for endophyte free Ryegrass plants clearly indicate transfer of the measured pyrrolizidine alkaloid compounds from the composition and into the plants via their root system

[2] = Uptake of pyrrolizidine alkaloids into endophyte free Fescue plants after watering composition onto roots; assay type: in vivo; conditions: leaf sub-sample after 21 days; for Pyrrolizidine Alkaloid Content, Average: average of 5 endophyte free Fescue plants, Grinding Number 1 composition watered on roots; for Pyrrolizidine Alkaloid Content: individual endophyte free Fescue plants 1-5, 100 ml Grinding Number 1 composition watered on roots every second day
Experimental: as §1, §2

[3] = Uptake of pyrrolizidine alkaloids into cabbage plants grown in silica sand; assay type: in vivo, Cabbage brassica; conditions: cabbage treated with composition of Grind Number 3 watered onto pots
Experimental: Cabbage brassica were tested with the pesticidal composition of Grind Number 3 of Example 1 watered onto the pots in which the trial cabbage plants were grown in silica sand.

SMILES | Pyrrolizidine Alkaloid Content, Average [1] | Pyrrolizidine Alkaloid Content [1] | Pyrrolizidine Alkaloid Content, Average [2] | Pyrrolizidine Alkaloid Content [2] | Pyrrolizidine Alkaloid Content [3]
CN(C=O)C1C2[C@@H]3CCN2C[C@H]1O3 (stereo partly drawn) [NFL, N-formylloline] | 644 mg/kg or ppm | 352 mg/kg or ppm and 340 mg/kg or ppm and 1152 mg/kg or ppm and 697 mg/kg or ppm and 680 mg/kg or ppm | 479 mg/kg or ppm | 405 mg/kg or ppm and 382 mg/kg or ppm and 648 mg/kg or ppm and 479 mg/kg or ppm and 482 mg/kg or ppm | 148 mg/kg or ppm
CC(=O)N[C@H]1[C@H]2[C@@H]3CCN2C[C@H]1O3 [NANL, N-acetylnorloline] | 14 mg/kg or ppm | 0 mg/kg or ppm (3×) and 44 mg/kg or ppm and 27 mg/kg or ppm | 0 mg/kg or ppm | 0 mg/kg or ppm | 0 mg/kg or ppm
CC(=O)N(C)[C@@H]1[C@H]2[C@@H]3CCN2C[C@H]1O3 [NAL, N-acetylloline] | 92 mg/kg or ppm | 40 mg/kg or ppm and 37 mg/kg or ppm and 214 mg/kg or ppm and 87 mg/kg or ppm and 84 mg/kg or ppm | 75 mg/kg or ppm | 56 mg/kg or ppm and 38 mg/kg or ppm and 119 mg/kg or ppm and 69 mg/kg or ppm and 95 mg/kg or ppm | 6 mg/kg or ppm
